Test results from patent publication US20260209233A1, “ANNULATED PYRIDAZINE DERIVATIVE” (Tenvie Therapeutics, Inc., priority 2022, published 2026).

Molecular target: T1, NLRP3 inflammasome (Homo sapiens, UniProt Q96P20)
T1 construct: endogenous in cells; host or cells: THP-1 cells, PMA-differentiated and stimulated with LPS and ATP
Experiment: THP-1 IL-1β production inhibition test
Format: cell-based
Settings: PMA-treated THP-1 cells, LPS 50 ng/ml + ATP 5 mM, 2 hours, IL-1β in supernatant by ELISA
Experimental: Test Example 1: THP-1 IL-1β Production Inhibition Test
PMA (phorbol myristate acetate, SIGMA, P1585) was added to THP-1 cells in an amount of 50 ng/mL to culture the cells for 2 days at 37° C. The culture medium was replaced with a serum-free RPMI-1640 medium, and a compound with a known concentration was added thereto to culture the cells at 37° C. for 15 minutes. LPS (Lipopolysaccharide, SIMGA, L2880) and ATP (Adenosine triphosphate, SIGMA, A2383) were added so that final concentrations become 50 ng/ml and 5 mM, respectively, followed by culturing at 37° C. for 2 hours. The supernatants were collected to measure the concentrations of IL-1β by ELISA (DuoSet ELISA human IL-1β, R&D Systems, DY201). The IL-1β concentrations were plotted against log concentrations of test compounds, and an IC50 value was calculated by sigmoid Emax model nonlinear regression analysis.
Example compounds were confirmed to inhibit NLRP3 inflammasome activation and IL-1β production.

T1 sequence (Q96P20 whole entry): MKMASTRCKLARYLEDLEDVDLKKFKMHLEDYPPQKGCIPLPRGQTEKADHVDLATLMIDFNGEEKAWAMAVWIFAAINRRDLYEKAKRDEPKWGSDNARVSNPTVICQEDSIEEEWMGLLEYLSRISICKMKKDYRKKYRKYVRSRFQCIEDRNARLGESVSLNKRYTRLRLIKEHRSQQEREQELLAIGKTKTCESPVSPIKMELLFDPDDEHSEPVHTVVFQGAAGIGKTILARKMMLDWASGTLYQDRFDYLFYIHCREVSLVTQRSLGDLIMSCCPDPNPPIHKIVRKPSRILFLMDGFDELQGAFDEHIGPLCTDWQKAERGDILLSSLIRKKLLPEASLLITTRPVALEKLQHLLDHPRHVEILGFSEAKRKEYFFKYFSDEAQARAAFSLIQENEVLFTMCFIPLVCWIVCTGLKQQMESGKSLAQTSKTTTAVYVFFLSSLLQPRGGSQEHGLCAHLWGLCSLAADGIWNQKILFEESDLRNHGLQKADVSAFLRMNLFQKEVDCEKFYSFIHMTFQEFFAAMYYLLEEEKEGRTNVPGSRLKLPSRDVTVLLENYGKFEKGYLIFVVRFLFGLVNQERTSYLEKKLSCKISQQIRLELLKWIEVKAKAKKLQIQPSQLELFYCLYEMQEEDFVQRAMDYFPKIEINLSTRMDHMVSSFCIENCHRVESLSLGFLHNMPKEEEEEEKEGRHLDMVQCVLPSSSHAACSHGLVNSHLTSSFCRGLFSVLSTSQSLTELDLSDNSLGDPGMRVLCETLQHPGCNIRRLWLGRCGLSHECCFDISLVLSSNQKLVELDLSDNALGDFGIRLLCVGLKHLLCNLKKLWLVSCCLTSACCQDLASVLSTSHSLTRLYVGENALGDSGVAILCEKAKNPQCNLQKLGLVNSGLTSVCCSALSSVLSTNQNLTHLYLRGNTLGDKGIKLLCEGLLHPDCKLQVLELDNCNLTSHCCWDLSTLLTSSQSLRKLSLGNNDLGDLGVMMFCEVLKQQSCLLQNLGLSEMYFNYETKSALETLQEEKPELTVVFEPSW

## CC(=O)O[C@@H]1CCCC[C@H]1N1CCN(C(C)=O)Cc2c1nnc(-c1ccc(C(F)(F)F)cc1O)c2C [Example 39, (1R,2R)-2-{6-acetyl-3-[2-hydroxy-4-(trifluoromethyl)phenyl]-4-methyl-5,6,7,8-tetrahydro-9H-pyridazino[3,4-e][1,4]diazepin-9-yl}cyclohexyl acetate]
  IC50: 160 nM

## Cc1c(-c2ccc(Cl)cc2O)nnc2c1COCCN2[C@@H]1CCCC[C@H]1O [Example 19]
  IC50: 30 nM

## Cc1c(-c2ccc(C(F)(F)F)cc2O)nnc2c1COCCN2[C@@H]1CCCN(CC(F)F)C1 [Example 26]
  IC50: 14 nM

## Cc1c(-c2ccc(OC(F)(F)F)cc2O)nnc2c1CCCN2[C@@H]1CCCN(C)C1 [Example 10]
  IC50: 49 nM

## Cc1c(-c2ccc(C(F)(F)F)cc2O)nnc2c1CN(C)CN2[C@@H]1CCCC[C@H]1O [Example 36, 2-{8-[(1R,2R)-2-hydroxycyclohexyl]-4,6-dimethyl-5,6,7,8-tetrahydropyrimido[4,5-c]pyridazin-3-yl}-5-(trifluoromethyl)phenol]
  IC50: 11 nM
